# Experimental data from patent publication US20060122191A1, “N-(indolethyl-)cycloamine compounds” (priority 2002, published 2006).
# Structures can show the parent of a compound that is named as a salt. Where two headings read alike, the source gives them in different places.
# Experiments:
# [1] = target: T1, serotonin reuptake (SSRI) (Rattus norvegicus, UniProt P31652); experiment: Serotonin reuptake inhibition (SSRI), receptor binding studies; assay type: biochemical
# T1 construct: from tissue
# Description: (§1) In-vitro evidence of interaction with the above-mentioned receptors can be provided, for example, as described in the following references: • 5-HT1A: Cossery J. M., Gozlan H., Spampinato U., Perdicakis C., Guillaumet G., Pichat L., Hamon M., 1987. The selective labeling of central 5-HT1A receptor binding sites by [3H]5-methoxy-3-(di-n-propylamino)chroman. Eur. J. Pharmacol. 140,143-55. • 5-HT2A: Klockow M., Greiner H. E., Haase A., Schmitges C.-J., Seyfried C. 1986. Studies on the receptor profile of bisoprolol. Arzneimittelforschung 36,197-200. • SSRI: Wong, D T, Bymaster, F P, Mayle, D A. Reid, L R, Krushinski, J H, Robertson, D W. LY248686, a new inhibitor of serotonin and norepinephrine uptake. Neuropsychopharmacology 8, 23-33, 1993
# (§2) As illustrative of two compounds of the formula I, receptor binding constants determined by the test systems described at the outset are indicated below: […]
# [2] = target: T2, 5-HT1A (Rattus norvegicus, UniProt P19327); experiment: 5-HT1A receptor binding
# T2 construct: from tissue
# T2 sequence (P19327 1-422): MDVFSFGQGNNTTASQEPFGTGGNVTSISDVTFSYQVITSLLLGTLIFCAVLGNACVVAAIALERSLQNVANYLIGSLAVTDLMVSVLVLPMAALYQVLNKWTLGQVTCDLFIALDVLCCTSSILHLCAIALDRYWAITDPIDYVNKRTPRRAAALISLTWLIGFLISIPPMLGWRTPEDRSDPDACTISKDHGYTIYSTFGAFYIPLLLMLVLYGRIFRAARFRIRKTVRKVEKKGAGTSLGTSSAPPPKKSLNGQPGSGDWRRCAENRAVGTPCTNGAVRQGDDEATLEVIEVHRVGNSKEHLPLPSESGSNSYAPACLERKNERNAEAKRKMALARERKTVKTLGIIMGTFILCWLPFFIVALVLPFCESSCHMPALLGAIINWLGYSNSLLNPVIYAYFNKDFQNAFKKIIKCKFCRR
# Description: as §1, §2
# [3] = target: 5-HT2A (UniProt P14842); experiment: 5-HT2A receptor binding
# Description: as §1, §2
# T1 sequence (P31652 whole entry): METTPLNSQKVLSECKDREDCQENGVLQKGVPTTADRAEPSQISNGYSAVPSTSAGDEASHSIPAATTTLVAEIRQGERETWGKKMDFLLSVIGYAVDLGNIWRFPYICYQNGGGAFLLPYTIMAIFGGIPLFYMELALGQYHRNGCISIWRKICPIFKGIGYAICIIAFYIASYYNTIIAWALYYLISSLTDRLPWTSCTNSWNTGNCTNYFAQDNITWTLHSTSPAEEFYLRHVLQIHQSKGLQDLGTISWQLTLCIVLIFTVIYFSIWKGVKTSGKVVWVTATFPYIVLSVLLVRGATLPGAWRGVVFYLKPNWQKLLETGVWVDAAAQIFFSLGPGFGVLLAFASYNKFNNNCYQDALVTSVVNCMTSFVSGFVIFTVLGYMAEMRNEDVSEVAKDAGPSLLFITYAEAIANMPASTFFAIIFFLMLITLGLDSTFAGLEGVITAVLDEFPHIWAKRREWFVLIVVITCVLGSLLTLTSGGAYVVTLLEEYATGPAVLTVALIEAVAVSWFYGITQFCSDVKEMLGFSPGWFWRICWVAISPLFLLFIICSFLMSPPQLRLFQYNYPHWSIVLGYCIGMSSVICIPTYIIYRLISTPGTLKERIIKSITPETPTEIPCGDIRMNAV
smiles,measurement,setting,value
"N#Cc1ccc2[nH]cc(CCN3CCN(c4cccc5c4OCCO5)CC3)c2c1 (as salt: hydrochloride) [a), 3-{2-[4-(2,3-Dihydrobenzo-1,4-dioxin-5-yl)piperazin-1-yl]ethyl}-1H-indole-5-carbonitrile]",melting point,,277.5 to 278.5 °C
"N#Cc1ccc2[nH]cc(CCN3CCN(c4cccc5nsnc45)CC3)c2c1 [b), 3-[2-(4-Benzo-1,2,5-thiadiazol-4-yl-piperazin-1-yl)ethyl]-1H-indole-5-carbonitrile]",Ki,[1],4.3 nM
same,Ki,"[2]; test system per Cossery et al. 1987, read-out: receptor binding constant 5-HT1A",110 nM
same,Ki,[3]; read-out: receptor binding constant 5-HT2A; test system per Klockow et al. 1986,7.3 nM
"N#Cc1ccc2[nH]cc(CCN3CCN(c4cccc5c4OCCO5)CC3)c2c1 [a), 3-{2-[4-(2,3-Dihydrobenzo-1,4-dioxin-5-yl)piperazin-1-yl]ethyl}-1H-indole-5-carbonitrile]",Ki,"[1]; test system per Wong et al. 1993, read-out: receptor binding constant SSRI",11 nM
same,Ki,[2],17 nM
same,Ki,[3]; test system per Klockow et al. 1986; read-out: receptor binding constant 5-HT2A,11 nM
